Measured values published in patent US12065471B2, “B*44 restricted peptides for use in immunotherapy against cancers and related methods” (Immatics Biotechnologies GmbH, priority 2018, dated 2024).

Legend:
[1] = test system: CD8+ T cells; assay: In vitro immunogenicity: T-cell priming with aAPCs loaded with peptide/MHC and anti-CD28, pMHC multimer readout; format: cell-based, human; settings: pMHC multimer readout after T-cell priming
Experimental: After three cycles of stimulation, the detection of peptide-reactive cells was performed by 2D multimer staining with B*44/SEQ ID NO: 469 (FIG. 3A), B*44/SEQ ID NO: 512 (FIG. 3B), B*44/SEQ ID NO: 9 (FIG. 3C), B*44/SEQ ID NO: 11 (D), B*44/SEQ ID NO: 17 (E), B*44/SEQ ID NO: 35 (F) or B*44/SEQ ID NO: 41 (FIG. 3G). Right panels (FIGS. 3A through 3G) show control staining of cells stimulated with irrelevant B*44/peptide complexes. Viable singlet cells were gated for CD8+ lymphocytes. Boolean gates helped excluding false-positive events detected with multimers specific for different peptides.
In order to obtain information regarding the immunogenicity of the TUMAPs of the present invention, the inventors performed investigations using an in vitro T-cell priming assay based on repeated stimulations of CD8+ T cells with artificial antigen presenting cells (aAPCs) loaded with peptide/MHC complexes and anti-CD28 antibody.
In order to perform in vitro stimulations by artificial antigen presenting cells loaded with peptide-MHC complex (pMHC) and anti-CD28 antibody, the inventors first isolated CD8+ T cells from fresh HLA-A*02 leukapheresis products via positive selection using CD8 microbeads (Miltenyi Biotec, Bergisch-Gladbach, Germany) of healthy donors obtained from the University clinics Mannheim, Germany, after informed consent.
PBMCs and isolated CD8+ lymphocytes were incubated in T-cell medium (TCM) until use consisting of RPMI-Glutamax (Invitrogen, Karlsruhe, Germany) supplemented with 10% heat inactivated human AB serum (PAN-Biotech, Aidenbach, Germany), 100 U/ml Penicillin/100 μg/ml Streptomycin (Cambrex, Cologne, Germany), 1 mM sodium pyruvate (CC Pro, Oberdorda, Germany), 20 μg/ml Gentamycin (Cambrex). 2.5 ng/ml IL-7 (PromoCell, Heidelberg, Germany) and 10 U/ml IL-2 (Novartis Pharma, Nümberg, Germany) were also added to the TCM at this step.
Generation of pMHC/anti-CD28 coated beads, T-cell stimulations and readout was performed in a highly defined in vitro system using four different pMHC molecules per stimulation condition and 8 different pMHC molecules per readout condition.
The purified co-stimulatory mouse IgG2a anti human CD28 Ab 9.3 (Jung et al., 1987) was chemically biotinylated using Sulfo-N-hydroxysuccinimidobiotin as recommended by the manufacturer (Perbio, Bonn, Germany). Beads used were 5.6 μm diameter streptavidin coated polystyrene particles (Bangs Laboratories, Illinois, USA).
800.000 beads/200 μl were coated in 96-well plates in the presence of 4×12.5 ng different biotin-pMHC, washed and 600 ng biotin anti-CD28 were added subsequently in a volume of 200 μl. Stimulations were initiated in 96-well plates by co-incubating 1×10^6 CD8+ T cells with 2×10^5 washed coated beads in 200 μl TCM supplemented with 5 ng/ml IL-12 (PromoCell) for 3 days at 37° C. Half of the medium was then exchanged by fresh TCM supplemented with 80 U/ml IL-2 and incubating was continued for 4 days at 37° C. This stimulation cycle was performed for a total of three times. For the pMHC multimer readout using 8 different pMHC molecules per condition, a two-dimensional combinatorial coding approach was used as previously described (Andersen et al., 2012) with minor modifications encompassing coupling to 5 different fluorochromes. Finally, multimeric analyses were performed by staining the cells with Live/dead near IR dye (Invitrogen, Karlsruhe, Germany), CD8-FITC antibody clone SK1 (BD, Heidelberg, Germany) and fluorescent pMHC multimers. For analysis, a BD LSRII SORP cytometer equipped with appropriate lasers and filters was used. Peptide specific cells were calculated as percentage of total CD8+ cells. Evaluation of multimeric analysis was done using the FlowJo software (Tree Star, Oregon, USA). In vitro priming of specific multimer+CD8+ lymphocytes was detected by comparing to negative control stimulations.

[2] = biological target: HLA-B*44:05 (Homo sapiens, UniProt P01889, A223V/A65T/A93T/A95T/D201E/D98Y/E176V/E187L/E204Q/E69K/G107R/H137Y/K202T/L105A/L119I/N104T/N87E/Q56L/Q94N/R106L/R155S/R180D/S101N/S121R/S35A/S48T/T118I/V36M/W191S/Y91S); assay: MHC binding assay (UV-ligand exchange, β2m ELISA, peptide exchange yield); settings: binding to HLA-B*44:05
Summary of the method: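 Peptide–HLA complexes formed by UV-ligand exchange of a UV-cleavable peptide for the test peptide. Exchange yield measured by β2m ELISA: complexes diluted 100-fold and captured on streptavidin, detected with HRP anti-β2m and TMB, read at 450 nm. Quantified against refolded HLA-A*02:01/MLA-001 monomer standards, 15-500 ng/ml.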

| Peptide exchange (MHC class I binding score, peptide exchange yield) [2] | Substance | Wells positive [%] ([1]; Table 10b) | Wells positive [%] ([1]; Table 10a) |
| --- | --- | --- | --- |
| +++ (>50 = +++) | 17 (SEIYQPRGF; listed as Homo sapiens) [compound 17] | ++++ (>=70% = ++++) | – |
| +++ (>50 = +++) | 83 (TEGGTQKTF; listed as Homo sapiens) [compound 83] | ++++ (>=70% = ++++) | – |
| +++ (>50 = +++) | 66 (AEVTLNNTI; listed as Homo sapiens) [compound 66] | + (<20% = +) | – |
| +++ (>50 = +++) | 69 (DENIQKFIW; listed as Homo sapiens) [compound 69] | ++ (20%-49% = ++) | – |
| +++ (>50 = +++) | 47 (TEVHSSPAQRW; listed as Homo sapiens) [compound 47] | +++ (50%-69% = +++) | – |
| +++ (>50 = +++) | 15 (MEAELVRRI; listed as Homo sapiens) [compound 15] | + (<20% = +) | – |
| +++ (>50 = +++) | 54 (QEISAHRTEF; listed as Homo sapiens) [compound 54] | + (<20% = +) | – |
| +++ (>50 = +++) | 57 (SEATHIITI; listed as Homo sapiens) [compound 57] | ++++ (>=70% = ++++) | – |
| +++ (>50 = +++) | 80 (TEQSLYYRQW; listed as Homo sapiens) [compound 80] | ++++ (>=70% = ++++) | – |
| +++ (>50 = +++) | 60 (EEAVRSVAF; listed as Homo sapiens) [compound 60] | ++ (20%-49% = ++) | – |
| +++ (>50 = +++) | 70 (AEAEEAMKRL; listed as Homo sapiens) [compound 70] | ++ (20%-49% = ++) | – |
| ++++ (>75% = ++++) | 35 (RELVHMINW; listed as Homo sapiens) [compound 35] | ++ (20%-49% = ++) | – |
| ++++ (>75% = ++++) | 9 (MEVDPIGHLYIF; listed as Homo sapiens) [compound 9] | +++ (50%-69% = +++) | – |
| ++++ (>75% = ++++) | 22 (TEEITEGVW; listed as Homo sapiens) [compound 22] | + (<20% = +) | – |
| ++ (>20% = ++) | 59 (AEIEADRSYQ; listed as Homo sapiens) [compound 59] | + (<20% = +) | – |
| +++ (>50 = +++) | 11 (EENIVAIGI; listed as Homo sapiens) [compound 11] | +++ (50%-69% = +++) | – |
| +++ (>50 = +++) | 78 (TEFSNHINL; listed as Homo sapiens) [compound 78] | ++ (20%-49% = ++) | – |
| +++ (>50 = +++) | 39 (AEAMGKFKQCF; listed as Homo sapiens) [compound 39] | + (<20% = +) | – |
| + (>10% = +) | 56 (ALEEGGGYIF; listed as Homo sapiens) [compound 56] | + (<20% = +) | – |
| +++ (>50 = +++) | 53 (KEDNPSGHTY; listed as Homo sapiens) [compound 53] | ++ (20%-49% = ++) | – |
| +++ (>50 = +++) | 24 (EELALRIGL; listed as Homo sapiens) [compound 24] | ++++ (>=70% = ++++) | – |
| – | 468 (QEQDVDLVQKY; listed as Homo sapiens) [compound 468] | – | + (<20% = +) |
| – | 463 (QEMQHFLGL; listed as Homo sapiens) [compound 463] | – | + (<20% = +) |

| Peptide exchange (MHC class I binding score, peptide exchange yield) [2] | Substance | Wells positive [%] ([1]; Table 10b) | Wells positive [%] ([1]; Table 10a) |
| --- | --- | --- | --- |
| – | 476 (MEHPGKLLF; listed as Homo sapiens) [compound 476] | – | + (<20% = +) |
| – | 491 (YEVDTVLRY; listed as Homo sapiens) [compound 491] | – | + (<20% = +) |
| – | 459 (KEVDPAGHSY; listed as Homo sapiens) [compound 459] | – | ++ (20%-49% = ++) |
| – | 497 (GEGAYGKVF; listed as Homo sapiens) [compound 497] | – | +++ (50%-69% = +++) |
| – | 461 (MEVDPIGHVYIF; listed as Homo sapiens) [compound 461] | – | + (<20% = +) |
| – | 492 (AEHNFVAKA; listed as Homo sapiens) [compound 492] | – | + (<20% = +) |
| – | 515 (AEGGKVPIKW; listed as Homo sapiens) [compound 515] | – | ++ (20%-49% = ++) |
| – | 512 (AEPLVGQRW; listed as Homo sapiens) [compound 512] | – | ++++ (>=70% = ++++) |
| – | 513 (AEKDGKLTDY; listed as Homo sapiens) [compound 513] | – | + (<20% = +) |
| – | 516 (DEYLIPQQGF; listed as Homo sapiens) [compound 516] | – | + (<20% = +) |
| – | 501 (KEGDLGGKQW; listed as Homo sapiens) [compound 501] | – | + (<20% = +) |
| – | 510 (SEDLAVHLY; listed as Homo sapiens) [compound 510] | – | ++++ (>=70% = ++++) |
| – | 495 (RENQVLGSGW; listed as Homo sapiens) [compound 495] | – | +++ (50%-69% = +++) |
| – | 511 (AEAVLKTLQEL; listed as Homo sapiens) [compound 511] | – | + (<20% = +) |
| – | 470 (EDAQGHIW; listed as Homo sapiens) [compound 470] | – | ++ (20%-49% = ++) |
| – | 485 (NEHPSNNW; listed as Homo sapiens) [compound 485] | – | + (<20% = +) |
| – | 467 (FEYDFLLQRI; listed as Homo sapiens) [compound 467] | – | + (<20% = +) |
| – | 488 (SENPETITY; listed as Homo sapiens) [compound 488] | – | ++ (20%-49% = ++) |
| – | 506 (QESDLRLFL; listed as Homo sapiens) [compound 506] | – | + (<20% = +) |
| – | 518 (FELPTGAGL; listed as Homo sapiens) [compound 518] | – | ++ (20%-49% = ++) |
| – | 474 (AEEEIMKKI; listed as Homo sapiens) [compound 474] | – | + (<20% = +) |
| – | 487 (LEMPHYSTF; listed as Homo sapiens) [compound 487] | – | +++ (50%-69% = +++) |
| – | 490 (TENRYCVQL; listed as Homo sapiens) [compound 490] | – | ++ (20%-49% = ++) |
